The results in this text go back to patent US20250320252A1 (The Scripps Research Institute, priority 2021, published 2025).

Like-named read-outs stand apart in the source and are kept apart here. Numbered stars: 1 amine (or outer) side, 2 acyl side, 3 side chain; on linkers, the order of the positions; unused ones are H or OH. Bridge positions count the residues as written; N and C are the ends. Square brackets hold non-standard residues; d marks the D form. Peptide text beside a SMILES is read from it. X2 = O=C(O)CCCCCCCCCCCCCCCCCCC(=O)N[C@@H](CCCCNC(=O)CCOCCOCCNC(=O)CCOCCOCCNC(=O)CCC(=O)N(CCNC(=O)C[*:1])CCNC(=O)C[*:2])C(=O)O; Aib = CC(C)(N)C(=O)O

The target in assay [1] is T1, human GIPR (Homo sapiens, UniProt P48546).
T1 construct: expressed in transfected cells
T1 sequence (P48546 22-466): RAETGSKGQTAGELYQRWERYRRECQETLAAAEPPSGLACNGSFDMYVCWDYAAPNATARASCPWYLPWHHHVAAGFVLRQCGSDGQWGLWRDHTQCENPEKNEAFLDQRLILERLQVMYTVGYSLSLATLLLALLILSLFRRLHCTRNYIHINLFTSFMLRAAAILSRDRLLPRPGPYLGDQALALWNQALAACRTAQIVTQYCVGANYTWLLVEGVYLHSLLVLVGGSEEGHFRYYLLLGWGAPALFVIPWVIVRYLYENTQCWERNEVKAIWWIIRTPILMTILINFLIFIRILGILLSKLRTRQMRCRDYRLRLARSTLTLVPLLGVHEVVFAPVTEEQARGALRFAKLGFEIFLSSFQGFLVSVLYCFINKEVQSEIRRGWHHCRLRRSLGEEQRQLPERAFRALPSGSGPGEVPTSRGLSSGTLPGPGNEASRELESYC
Nature of the assay: In vitro receptor activation reporter assay (CRE-Luc), HEK293-GIPR-CRE. The class given is cell-based. In general terms: In a reporter assay the amount or activity of a reporter protein is the signal.
Excerpt: HEK293 cells were infected with lentivirus encoding firefly luciferase gene under the control of cAMP responsive element (CRE) promoter (Qiagen, The Netherlands) and then were selected using 1 g mL^−1 puromycin (Life Technologies, Carlsbad) for 1 week. The surviving cells (referred to as CRE-HEK293) were expanded and then transfected with a G418 selective mammalian expression plasmid encoding human GLP-1R or GIPR. In brief, GLP-1R or GIPR plasmid was transfected into CRE-HEK293 cells using Lipofectamine 2000 and selected with 400 g mL^−1 Geneticin (Life Technologies, Carlsbad, CA). Single colony stable cell line overexpressing CRE-luciferase and GLP-1R or GIPR (HEK293-GLP-1R-CRE or HEK293-GIPR-CRE) was then established for in vitro activity assay.
(§1) The EC50 of each peptide was determined using GraphPad Prism 6 software (GraphPad, San Diego, CA).

For assay [2], the target named is T2, human GLP-1R (Homo sapiens, UniProt P43220).
T2 construct: expressed in transfected cells
The assay is described as follows: In vitro receptor activation reporter assay (CRE-Luc), HEK293-GLP-1R-CRE. The class given is cell-based.
Description: as §1
HEK293 cells were infected with lentivirus encoding firefly luciferase gene under the control of cAMP responsive element (CRE) promoter (Qiagen, The Netherlands) and then were selected using 1 g/mL puromycin (Life Technologies, Carlsbad) for 1 week. The surviving cells (referred to as CRE-HEK293) were expanded and then transfected with a G418 selective mammalian expression plasmid encoding human GLP-1R. In brief, GLP-1R plasmid was transfected into CRE-HEK293 cells using Lipofectamine 2000 and selected with 400 g/mL Geneticin (Life Technologies, Carlsbad, CA). Single colony stable cell line overexpressing CRE-luciferase and GLP1R was then established for in vitro activity assay.

T2 sequence (P43220 24-463): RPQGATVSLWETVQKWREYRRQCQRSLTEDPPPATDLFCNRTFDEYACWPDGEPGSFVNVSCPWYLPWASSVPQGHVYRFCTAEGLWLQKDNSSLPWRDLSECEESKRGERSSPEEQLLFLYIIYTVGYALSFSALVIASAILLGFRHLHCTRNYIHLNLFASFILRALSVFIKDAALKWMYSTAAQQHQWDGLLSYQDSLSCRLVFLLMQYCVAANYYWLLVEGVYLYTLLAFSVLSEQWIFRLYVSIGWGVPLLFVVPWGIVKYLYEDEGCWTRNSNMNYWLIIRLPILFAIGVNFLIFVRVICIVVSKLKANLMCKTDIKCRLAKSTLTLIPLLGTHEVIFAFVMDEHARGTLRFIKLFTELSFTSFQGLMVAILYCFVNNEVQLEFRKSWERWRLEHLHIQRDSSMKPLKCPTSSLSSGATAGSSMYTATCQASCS

With `CC[C@H](C)[C@H](NC(=O)[C@H](CC(C)C)NC(=O)[C@H](Cc1c[nH]c2ccccc12)NC(=O)[C@H](CC(N)=O)NC(=O)[C@@H](NC(=O)[C@H](Cc1ccccc1)NC(=O)[C@@H]1CSCC(=O)NCCN(C(=O)CCC(=O)NCCOCCOCCC(=O)NCCOCCOCCC(=O)NCCCC[C@H](NC(=O)CCCCCCCCCCCCCCCCCCC(=O)O)C(=O)O)CCNC(=O)CSC[C@H](NC(=O)[C@H](Cc2ccc(O)cc2)NC(=O)[C@@H](NC(=O)[C@H](CO)NC(=O)[C@H](Cc2ccc(O)cc2)NC(=O)[C@H](CC(=O)O)NC(=O)[C@H](CO)NC(=O)[C@@H](NC(=O)[C@H](Cc2ccc(O)cc2)NC(=O)[C@@H](NC(=O)CNC(=O)[C@H](CCC(=O)O)NC(=O)C(C)(C)NC(=O)[C@@H](N)Cc2ccc(O)cc2)[C@@H](C)O)[C@@H](C)O)[C@@H](C)CC)C(=O)N[C@@H](CC(=O)O)C(=O)N[C@@H](CCCCN)C(=O)N[C@@H](CCC(N)=O)C(=O)N[C@@H](C)C(=O)N[C@@H](C)C(=O)NC(C)(C)C(=O)N1)C(C)C)C(=O)N[C@@H](C)C(=O)NCC(=O)NCC(=O)N1CCC[C@H]1C(=O)N[C@@H](CO)C(=O)N[C@@H](CO)C(=O)NCC(=O)N[C@@H](C)C(=O)N1CCC[C@H]1C(=O)N1CCC[C@H]1C(=O)N1CCC[C@H]1C(=O)N[C@@H](CO)C(N)=O` [6Y, 271, C(14-21) - C20L5A, YAibEGT-YTSDY-SIYXD-KQAAAib-XFVNW-LIAGG-PSSGA-PPPS-NH2 (where each X is C)] (H-Y[Aib]EGTYTSDYSIYCDKQAA[Aib]CFVNWLIAGGPSSGAPPPS-NH2; linker 14-21 via X2), the EC50 in assay [1] (GIPR (nM) [EC50] 02/19, unnumbered table (Table 10), run 02/19) turned out to be 0.5 nM; in assay [2] (GLP1R (nM) [EC50] 02/19, unnumbered table (Table 10), run 02/19), 0.04 nM; in assay [2] (GLP1R (nM) [EC50] 3/25, unnumbered table (Table 10), run 3/25), 0.07 nM; in assay [2] (GLP1R (nM) [EC50] 03/26, unnumbered table (Table 10), run 03/26), 0.07 nM; in assay [2] (GLP1R (nM) [EC50] average, unnumbered table (Table 10), average of runs) it was 0.06 nM.

Take `CC[C@H](C)[C@H](NC(=O)[C@H](CC(C)C)NC(=O)[C@H](Cc1c[nH]c2ccccc12)NC(=O)[C@H](CC(N)=O)NC(=O)[C@@H](NC(=O)[C@H](Cc1ccccc1)NC(=O)[C@@H]1CSCC(=O)NCCN(C(=O)CCC(=O)NCCOCCOCCC(=O)NCCOCCOCCC(=O)NCCCC[C@H](NC(=O)CCCCCCCCCCCCCCCCCCC(=O)O)C(=O)O)CCNC(=O)CSC[C@H](NC(=O)[C@H](Cc2ccc(O)cc2)NC(=O)[C@@H](NC(=O)[C@H](CO)NC(=O)[C@@H](NC(=O)[C@H](CC(=O)O)NC(=O)[C@H](CO)NC(=O)[C@@H](NC(=O)[C@H](Cc2ccccc2)NC(=O)[C@@H](NC(=O)CNC(=O)[C@H](CCC(=O)O)NC(=O)C(C)(C)NC(=O)[C@@H](N)Cc2ccc(O)cc2)[C@@H](C)O)[C@@H](C)CC)C(C)C)[C@@H](C)CC)C(=O)N[C@@H](CC(=O)O)C(=O)N[C@@H](CCCCN)C(=O)N[C@@H](CCC(N)=O)C(=O)N[C@@H](C)C(=O)N[C@@H](C)C(=O)NC(C)(C)C(=O)N1)C(C)C)C(=O)N[C@@H](C)C(=O)NCC(=O)NCC(=O)N1CCC[C@H]1C(=O)N[C@@H](CO)C(=O)N[C@@H](CO)C(=O)NCC(=O)N[C@@H](C)C(=O)N1CCC[C@H]1C(=O)N1CCC[C@H]1C(=O)N1CCC[C@H]1C(=O)N[C@@H](CO)C(N)=O` [7I, 10V, 27I, C(14-21) - C20L5A, YAibEGT-FISDV-SIYXD-KQAAAib-XFVNW-LIAGG-PSSGA-PPPS-NH2 (where each X is C)] (H-Y[Aib]EGTFISDVSIYCDKQAA[Aib]CFVNWLIAGGPSSGAPPPS-NH2; linker 14-21 via X2): the half-maximal effective concentration (EC50) in assay [1] (Table 8, read-out: EC50 [nM] GIPR) is 303 nM; in assay [2] (Table 8, read-out: EC50 [nM] GLP1R), approximately 13700 nM.

One may read the EC50 as the midpoint of the concentration-response curve.
